According to paper PMC3388095, “Fluorophore Labeled Kinase Detects Ligands That Bind within the MAPK Insert of p38α Kinase” (PLoS ONE, 2012):

Columns and labels:
Experiment in all cases: Kinase selectivity profile, 33P-ATP filter-binding assay
Format in all cases: biochemical
Aurora B = Aurora B (Homo sapiens, UniProt Q96GD4)
Procedure: (§1) Figure 5 Kinase selectivity profile of 1b. Compound 1b was profiled against a selected panel of 95 different kinases at a concentration of 10 µM employing a radioactive (^33P-ATP) filter-binding assay (National Centre for Protein Kinase Profiling, Dundee). The numbers represent the remaining kinase activity in %. […] TEXT PRINTED IN THE PICTURE: no label printed: Aurora B: 53; MNK2: 67; MINK1: 69; HER4: 71; MKK1: 75; PKBβ: 75; PHK: 76; PIM2: 76; PIM3: 77; CHK2: 78; PKD1: 79; TBK1: 79; PAK4: 80; Lck: 80; GSK3β: 80; IGF-1R: 81; p38δ MAPK: 81; PIM1: 82; SRPK1: 83; SmMLCK: 83; MAPKAP-K3: 84; EPH A2: 85; MELK: 85; CK2: 85; CK1: 86; CAMK1: 86; PLK1: 87; MST2: 87; IR-HIS: 87; BTK: 87; HIPK1: 87; p38α MAPK: 88; DYRK2: 88; JNK3: 88; PAK5: 88; IKKε: 89; p38β MAPK: 89; NUAK1: 90; PAK2: 90; MNK1: 91; ERK8: 91; GCK: 91; PRAK: 91; MLK1: 92; SGK1: 92; PAK6: 92; TTK: 92; BRSK2: 92; MARK4: 93; CHK1: 93; RIPK2: 94; CDK2-Cyclin A: 94; JNK1: 94; AMPK: 94; VEG-FR: 95; DYRK1A: 95; CAMKKβ: 95; PKCα: 96; S6K1: 96; MSK1: 96; PKCz: 96; YES1: 96; RSK1: 97; IRAK4: 97; DYRK3: 97; IKKβ: 97; ERK2: 98; MLK3: 98; RSK2: 98; LKB1: 98; MAPKAP-K2: 98; ERK1: 99; FGF-R1: 99; SYK: 99; MST4: 99; MARK3: 99; MARK2: 100; PDK1: 100; JNK2: 101; HIPK2: 101; BRSK1: 102; EF2K: 102; PRK2: 103; Aurora A: 104; IRR: 104; CSK: 104; PKA: 104; NEK6: 105; p38γ MAPK: 105; Src: 107; PKBα: 109; ROCK 2: 109; EPH-B3: 112; HIPK3: 115; NEK2α: 119 DOUBTS OF THE COPYIST ABOUT THIS PICTURE: The picture prints no compound label and no measure or unit for the numbers; only the colour scale 'Inhibition weak/strong' is printed. / PKCz: the last letter may be z or ζ / NEK2α: the last letter may be a or α / IKKε: the last letter may be ε or e

CDK2-Cyclin A = CDK2-Cyclin A (Homo sapiens, UniProt P24941)
Procedure: as §1

CHK1 = CHK1 (Homo sapiens, UniProt O14757)
Procedure: as §1

CK1 = CK1 (Homo sapiens, UniProt P48730)
Procedure: as §1

CSK = CSK (Homo sapiens, UniProt P41240)
Procedure: as §1

DYRK2 = DYRK2 (Homo sapiens, UniProt Q92630)
Procedure: as §1

ERK1 = ERK1 (Homo sapiens, UniProt P27361)
Procedure: as §1

GCK = GCK (Homo sapiens, UniProt Q12851)
Procedure: as §1

HER4 = HER4 (Homo sapiens, UniProt Q15303)
Procedure: as §1

HIPK3 = HIPK3 (Homo sapiens, UniProt Q9H422)
Procedure: as §1

IGF-1R = IGF-1R (Homo sapiens, UniProt P08069)
Procedure: as §1

IKKβ = IKKβ (Homo sapiens, UniProt O14920)
Procedure: as §1

IRAK4 = IRAK4 (Homo sapiens, UniProt Q9NWZ3)
Procedure: as §1

MARK2 = MARK2 (Homo sapiens, UniProt Q7KZI7)
Procedure: as §1

MARK3 = MARK3 (Homo sapiens, UniProt P27448)
Procedure: as §1

MELK = MELK (Homo sapiens, UniProt Q14680)
Procedure: as §1

MINK1 = MINK1 (Homo sapiens, UniProt Q8N4C8)
Procedure: as §1

MST4 = MST4 (Homo sapiens, UniProt Q9P289)
Procedure: as §1

PAK5 = PAK5 (Homo sapiens, UniProt Q9P286)
Procedure: as §1

PKBα = PKBα (Homo sapiens, UniProt P31749)
Procedure: as §1

PKBβ = PKBβ (Homo sapiens, UniProt P31751)
Procedure: as §1

PKCz = PKCz (Homo sapiens, UniProt Q05513)
Procedure: as §1

PLK1 = PLK1 (Homo sapiens, UniProt P53350)
Procedure: as §1

ROCK 2 = ROCK 2 (Rattus norvegicus, UniProt Q62868)
Procedure: as §1

RSK2 = RSK2 (Homo sapiens, UniProt P51812)
Procedure: as §1

SYK = SYK (Homo sapiens, UniProt P43405)
Procedure: as §1

Src = Src (Homo sapiens, UniProt P12931)
Procedure: as §1

Chain of HER4 (Q15303 26-1308): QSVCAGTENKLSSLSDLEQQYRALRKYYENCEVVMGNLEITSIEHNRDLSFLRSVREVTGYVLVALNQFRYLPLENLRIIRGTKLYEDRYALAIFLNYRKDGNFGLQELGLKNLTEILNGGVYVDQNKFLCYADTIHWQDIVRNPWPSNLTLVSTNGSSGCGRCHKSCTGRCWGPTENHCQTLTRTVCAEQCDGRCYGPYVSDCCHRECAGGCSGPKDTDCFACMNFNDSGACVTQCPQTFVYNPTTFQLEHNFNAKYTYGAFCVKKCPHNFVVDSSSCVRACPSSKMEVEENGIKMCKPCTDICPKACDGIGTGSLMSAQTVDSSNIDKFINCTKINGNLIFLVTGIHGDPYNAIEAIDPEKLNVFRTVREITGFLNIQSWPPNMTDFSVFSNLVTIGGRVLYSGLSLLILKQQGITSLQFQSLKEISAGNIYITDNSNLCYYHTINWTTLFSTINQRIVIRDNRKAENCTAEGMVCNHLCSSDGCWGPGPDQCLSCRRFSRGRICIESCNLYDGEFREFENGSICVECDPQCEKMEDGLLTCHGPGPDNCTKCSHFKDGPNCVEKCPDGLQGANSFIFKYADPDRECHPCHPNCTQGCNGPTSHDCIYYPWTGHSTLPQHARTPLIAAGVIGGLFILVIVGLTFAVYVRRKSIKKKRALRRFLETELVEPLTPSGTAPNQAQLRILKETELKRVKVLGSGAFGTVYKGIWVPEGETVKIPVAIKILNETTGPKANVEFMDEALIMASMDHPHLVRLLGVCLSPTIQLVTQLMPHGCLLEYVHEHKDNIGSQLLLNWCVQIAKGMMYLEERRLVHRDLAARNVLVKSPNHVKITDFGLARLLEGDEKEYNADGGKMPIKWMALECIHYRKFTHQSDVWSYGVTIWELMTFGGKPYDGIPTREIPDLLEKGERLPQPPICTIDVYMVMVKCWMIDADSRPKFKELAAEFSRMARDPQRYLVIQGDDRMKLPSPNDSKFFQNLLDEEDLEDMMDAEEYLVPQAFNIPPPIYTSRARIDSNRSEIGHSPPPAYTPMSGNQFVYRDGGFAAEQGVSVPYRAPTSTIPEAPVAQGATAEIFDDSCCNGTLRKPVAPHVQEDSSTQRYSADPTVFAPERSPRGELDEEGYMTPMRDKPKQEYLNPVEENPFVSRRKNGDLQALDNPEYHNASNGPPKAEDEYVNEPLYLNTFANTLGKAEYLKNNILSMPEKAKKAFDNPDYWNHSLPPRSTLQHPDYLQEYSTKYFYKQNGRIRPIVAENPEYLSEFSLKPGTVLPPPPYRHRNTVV
Chain of MARK3 (P27448 whole entry): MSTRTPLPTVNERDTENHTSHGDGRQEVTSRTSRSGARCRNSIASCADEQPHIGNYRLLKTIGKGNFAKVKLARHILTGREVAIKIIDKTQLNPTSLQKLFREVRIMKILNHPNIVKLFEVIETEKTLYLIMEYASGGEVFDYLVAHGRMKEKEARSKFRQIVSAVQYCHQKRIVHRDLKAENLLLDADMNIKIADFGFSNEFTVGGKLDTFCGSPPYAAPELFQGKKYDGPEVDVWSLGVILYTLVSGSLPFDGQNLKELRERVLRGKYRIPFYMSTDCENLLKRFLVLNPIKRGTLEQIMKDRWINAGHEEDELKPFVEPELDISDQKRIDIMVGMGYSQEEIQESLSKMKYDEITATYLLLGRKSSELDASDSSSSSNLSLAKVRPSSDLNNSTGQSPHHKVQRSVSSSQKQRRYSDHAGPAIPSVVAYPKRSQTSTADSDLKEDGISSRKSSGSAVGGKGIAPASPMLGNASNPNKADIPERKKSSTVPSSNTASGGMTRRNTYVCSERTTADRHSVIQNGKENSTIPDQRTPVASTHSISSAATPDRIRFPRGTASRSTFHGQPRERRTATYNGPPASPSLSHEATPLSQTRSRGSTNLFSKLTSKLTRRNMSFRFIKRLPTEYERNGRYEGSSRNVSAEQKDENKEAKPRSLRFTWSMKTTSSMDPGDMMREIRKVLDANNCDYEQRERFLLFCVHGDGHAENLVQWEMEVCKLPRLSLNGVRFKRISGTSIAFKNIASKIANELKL
Chain of IKKβ (O14920 whole entry): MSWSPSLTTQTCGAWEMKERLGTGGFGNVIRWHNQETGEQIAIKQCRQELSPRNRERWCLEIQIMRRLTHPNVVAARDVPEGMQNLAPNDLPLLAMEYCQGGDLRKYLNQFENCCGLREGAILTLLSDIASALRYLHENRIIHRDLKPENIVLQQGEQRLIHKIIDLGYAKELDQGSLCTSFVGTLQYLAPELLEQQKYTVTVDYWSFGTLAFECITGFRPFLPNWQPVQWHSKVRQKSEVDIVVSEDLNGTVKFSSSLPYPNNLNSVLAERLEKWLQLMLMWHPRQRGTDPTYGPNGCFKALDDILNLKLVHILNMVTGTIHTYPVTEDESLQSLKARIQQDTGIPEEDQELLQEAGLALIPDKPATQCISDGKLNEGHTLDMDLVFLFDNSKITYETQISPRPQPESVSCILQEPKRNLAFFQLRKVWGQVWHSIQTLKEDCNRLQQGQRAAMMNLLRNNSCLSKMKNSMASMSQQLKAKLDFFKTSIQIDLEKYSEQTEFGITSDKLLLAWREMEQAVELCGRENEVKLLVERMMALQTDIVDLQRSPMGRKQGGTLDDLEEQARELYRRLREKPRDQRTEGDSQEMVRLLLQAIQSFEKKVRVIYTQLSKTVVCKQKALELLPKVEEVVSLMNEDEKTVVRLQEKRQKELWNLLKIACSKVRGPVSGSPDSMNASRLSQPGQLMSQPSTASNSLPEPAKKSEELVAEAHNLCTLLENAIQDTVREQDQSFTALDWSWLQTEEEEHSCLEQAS
Chain of PAK5 (Q9P286 whole entry): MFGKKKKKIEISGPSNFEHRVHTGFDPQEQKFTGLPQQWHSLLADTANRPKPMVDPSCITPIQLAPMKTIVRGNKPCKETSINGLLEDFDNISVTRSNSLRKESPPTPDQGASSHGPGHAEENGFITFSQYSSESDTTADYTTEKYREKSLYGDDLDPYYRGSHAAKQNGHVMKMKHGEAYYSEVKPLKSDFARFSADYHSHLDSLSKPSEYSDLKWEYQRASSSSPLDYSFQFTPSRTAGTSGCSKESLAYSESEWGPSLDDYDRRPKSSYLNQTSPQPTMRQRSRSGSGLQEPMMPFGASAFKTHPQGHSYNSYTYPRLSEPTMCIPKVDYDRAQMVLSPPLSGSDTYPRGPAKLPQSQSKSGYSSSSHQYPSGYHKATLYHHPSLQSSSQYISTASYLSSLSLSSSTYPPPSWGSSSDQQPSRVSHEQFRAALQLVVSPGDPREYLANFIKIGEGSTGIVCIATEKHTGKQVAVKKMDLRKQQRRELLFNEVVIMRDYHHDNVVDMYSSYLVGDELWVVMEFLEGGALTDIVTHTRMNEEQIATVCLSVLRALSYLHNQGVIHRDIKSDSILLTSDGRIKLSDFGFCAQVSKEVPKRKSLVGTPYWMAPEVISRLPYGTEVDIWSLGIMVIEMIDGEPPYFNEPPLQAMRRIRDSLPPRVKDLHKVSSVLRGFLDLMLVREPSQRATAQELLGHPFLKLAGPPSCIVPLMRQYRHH
Chain of Aurora B (Q96GD4 whole entry): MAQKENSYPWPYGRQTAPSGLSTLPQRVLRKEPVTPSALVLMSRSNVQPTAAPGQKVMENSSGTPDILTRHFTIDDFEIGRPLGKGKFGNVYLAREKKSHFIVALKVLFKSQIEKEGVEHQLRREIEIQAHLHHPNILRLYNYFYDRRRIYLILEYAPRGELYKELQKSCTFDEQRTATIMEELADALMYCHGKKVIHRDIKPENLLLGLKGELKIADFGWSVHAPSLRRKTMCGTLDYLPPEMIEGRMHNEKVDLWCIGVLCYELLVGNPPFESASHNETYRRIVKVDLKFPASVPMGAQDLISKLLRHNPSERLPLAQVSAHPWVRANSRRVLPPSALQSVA
Chain of HIPK3 (Q9H422 whole entry): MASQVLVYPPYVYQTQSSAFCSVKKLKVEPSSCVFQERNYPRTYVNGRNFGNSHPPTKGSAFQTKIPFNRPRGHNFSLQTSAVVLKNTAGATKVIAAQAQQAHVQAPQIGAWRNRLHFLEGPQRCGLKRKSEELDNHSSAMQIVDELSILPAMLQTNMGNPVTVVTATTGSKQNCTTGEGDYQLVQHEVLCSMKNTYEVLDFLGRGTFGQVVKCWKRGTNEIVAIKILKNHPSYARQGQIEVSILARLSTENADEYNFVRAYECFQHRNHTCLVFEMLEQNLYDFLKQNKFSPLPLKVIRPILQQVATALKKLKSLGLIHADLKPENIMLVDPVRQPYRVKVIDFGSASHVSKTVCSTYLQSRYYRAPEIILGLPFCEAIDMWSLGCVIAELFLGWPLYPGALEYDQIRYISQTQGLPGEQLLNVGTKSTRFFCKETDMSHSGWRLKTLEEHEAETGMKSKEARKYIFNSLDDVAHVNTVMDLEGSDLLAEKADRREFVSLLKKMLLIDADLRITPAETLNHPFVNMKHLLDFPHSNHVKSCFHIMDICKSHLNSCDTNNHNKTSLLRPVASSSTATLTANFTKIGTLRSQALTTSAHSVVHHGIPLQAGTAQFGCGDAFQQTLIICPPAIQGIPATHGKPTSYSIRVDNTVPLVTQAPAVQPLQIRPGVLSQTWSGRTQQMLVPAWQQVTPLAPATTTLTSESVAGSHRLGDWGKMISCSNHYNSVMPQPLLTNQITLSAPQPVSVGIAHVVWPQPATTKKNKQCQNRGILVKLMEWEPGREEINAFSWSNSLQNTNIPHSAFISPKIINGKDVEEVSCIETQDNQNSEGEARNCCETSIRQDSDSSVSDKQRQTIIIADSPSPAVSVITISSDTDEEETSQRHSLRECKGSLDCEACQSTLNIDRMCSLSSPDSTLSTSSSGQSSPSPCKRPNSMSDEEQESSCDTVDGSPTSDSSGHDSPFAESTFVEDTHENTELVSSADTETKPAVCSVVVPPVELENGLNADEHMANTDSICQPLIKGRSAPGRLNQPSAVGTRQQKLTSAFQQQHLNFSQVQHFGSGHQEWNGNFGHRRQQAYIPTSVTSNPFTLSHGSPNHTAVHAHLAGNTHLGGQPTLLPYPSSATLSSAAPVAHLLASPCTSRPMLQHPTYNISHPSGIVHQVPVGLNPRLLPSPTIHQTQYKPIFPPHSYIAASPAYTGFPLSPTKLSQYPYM

Compound: Nc1ccc2c(NC3CC3)nc(-c3ccccc3)nc2c1 [1b, N^4-Cyclopropyl-2-phenyl-4,7-quinazolinediamine]
- remaining activity at 10 µM (Aurora B): 53%
- remaining activity at 10 µM (CDK2-Cyclin A): 94%
- remaining activity at 10 µM (CHK1): 93%
- remaining activity at 10 µM (CK1): 86%
- remaining activity at 10 µM (CSK): 104%
- remaining activity at 10 µM (DYRK2): 88%
- remaining activity at 10 µM (ERK1): 99%
- remaining activity at 10 µM (GCK): 91%
- remaining activity at 10 µM (HER4): 71%
- remaining activity at 10 µM (HIPK3): 115%
- remaining activity at 10 µM (IGF-1R): 81%
- remaining activity at 10 µM (IKKβ): 97%
- remaining activity at 10 µM (IRAK4): 97%
- remaining activity at 10 µM (MARK2): 100%
- remaining activity at 10 µM (MARK3): 99%
- remaining activity at 10 µM (MELK): 85%
- remaining activity at 10 µM (MINK1): 69%
- remaining activity at 10 µM (MST4): 99%
- remaining activity at 10 µM (PAK5): 88%
- remaining activity at 10 µM (PKBα): 109%
- remaining activity at 10 µM (PKBβ): 75%
- remaining activity at 10 µM (PKCz): 96%
- remaining activity at 10 µM (PLK1): 87%
- remaining activity at 10 µM (ROCK 2): 109%
- remaining activity at 10 µM (RSK2): 98%
- remaining activity at 10 µM (SYK): 99%
- remaining activity at 10 µM (Src): 107%
